Test results from patent US8399676B2, “Piperidine derivatives” (Hoffman-La Roche Inc., priority 2009, dated 2013).
Where a name gives a salt, the structure may show the parent alone.

molecular target: T1, human HSL (Homo sapiens, UniProt Q05469); assay: Human Hormone-Sensitive Lipase (HSL) enzyme inhibition assay (colorimetric, DMPT substrate); type: biochemical; conditions: read-out: HSL hum IC50
T1 construct: generate a full length human HSL ORF with a 3′-His6 tag; His6 (C); made in house; host or cells: High 5 insect cells (baculovirus, pFast-BAC)
T1 sequence (Q05469 1-1076): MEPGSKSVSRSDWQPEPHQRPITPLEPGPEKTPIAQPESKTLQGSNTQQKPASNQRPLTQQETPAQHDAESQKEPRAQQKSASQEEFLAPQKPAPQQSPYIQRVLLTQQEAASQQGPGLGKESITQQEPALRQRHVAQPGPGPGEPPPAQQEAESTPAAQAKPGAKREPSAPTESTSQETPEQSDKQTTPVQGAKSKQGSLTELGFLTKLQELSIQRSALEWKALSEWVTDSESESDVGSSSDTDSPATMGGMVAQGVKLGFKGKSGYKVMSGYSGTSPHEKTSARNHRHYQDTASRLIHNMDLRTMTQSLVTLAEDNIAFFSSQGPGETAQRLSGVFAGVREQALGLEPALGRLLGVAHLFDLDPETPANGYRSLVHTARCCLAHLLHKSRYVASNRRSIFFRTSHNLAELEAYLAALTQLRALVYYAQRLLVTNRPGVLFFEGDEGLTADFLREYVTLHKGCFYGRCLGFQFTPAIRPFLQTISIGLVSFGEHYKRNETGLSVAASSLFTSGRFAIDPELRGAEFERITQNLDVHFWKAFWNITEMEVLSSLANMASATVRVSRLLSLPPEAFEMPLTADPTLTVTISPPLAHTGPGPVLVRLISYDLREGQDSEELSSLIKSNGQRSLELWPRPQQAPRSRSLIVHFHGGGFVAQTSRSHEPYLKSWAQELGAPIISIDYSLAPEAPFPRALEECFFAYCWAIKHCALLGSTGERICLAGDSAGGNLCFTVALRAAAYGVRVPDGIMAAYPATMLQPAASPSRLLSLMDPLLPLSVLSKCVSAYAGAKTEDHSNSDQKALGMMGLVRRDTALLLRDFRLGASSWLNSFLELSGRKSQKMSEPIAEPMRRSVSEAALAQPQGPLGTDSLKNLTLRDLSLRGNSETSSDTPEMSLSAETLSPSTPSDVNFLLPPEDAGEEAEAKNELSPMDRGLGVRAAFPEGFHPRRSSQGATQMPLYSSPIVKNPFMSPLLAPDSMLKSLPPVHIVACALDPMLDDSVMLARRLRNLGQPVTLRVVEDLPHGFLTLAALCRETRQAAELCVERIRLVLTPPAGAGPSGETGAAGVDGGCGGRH
Method: Production of Human Full Length Hormone Sensitive Lipase-His^6
1) Cloning: cDNA was prepared from commercial human brain polyA+ RNA and used as a template in overlapping PCR to generate a full length human HSL ORF with a 3′-His6 tag. This full length insert was cloned into the pFast-BAC vector and the DNA-sequence of several single clones was verified. DNA from a correct full length clone with the 3′His6 tag was used to transform the E. coli strain DH10BAC. Resulting bacmid DNA was used to generate a titered baculovirus stock for protein generation. The sequence of the encoded HSL conforms to Swissprot entry Q05469, with the additional C-terminal His6-tag.
2) Protein purification: Culture: 5.5 L, High 5 cells expressing human full length HSL-His^6, 48 hr., containing 25 μM E-64. Cell count: […], 90% viable.
Cells were thawed. On ice, cells were suspended in Base Buffer containing 10% glycerol, 25 mM Tris-Cl, 300 mM NaCl, 10 mM imidazole, 10 mM 2-mercaptoethanol, 2 μg pepstatin/ml, 2 μg leupeptin/ml, 2 μg antipain/ml, pH 8.0 at 4° C. in a final volume of 475 ml with 3.75×10^7 cells/ml. […] was done at 3×30 sec., Lubrol PX was added to 0.2% final concentration followed by stirring for 15 min. at 4° C. and centrifugation at 25 k×g, 60 min., 4° C. Soluble proteins were mixed with 60 ml of pre-washed and equilibrated Ni-NTA Agarose (Qiagen 30210) followed by tumbling end-over-end, 45 min., 4° C., centrifugation 1000 rpm 5 min and letting resin settle 5 min. Supernatant was removed, the resin washed in the centrifuge vessel using 5 volumes of Base Buffer containing 0.2% Lubrol PX. Centrifugation was done again, then the supernatant discarded. The resin was poured onto a 0.8 μm membrane in a disposable filter unit (Nalge 450-0080), and washed with 5 volumes of Base Buffer containing 0.2% Lubrol PX. It was then washed with 30 volumes of Base Buffer containing 60 mM imidazole pH 7.5 at 4° C. The protein was eluted with 5 volumes of 25 mM Tris-Cl, 300 mM NaCl, 200 mM imidazole, 10 mM 2-mercaptoethanol, pH 7.5 at 4° C. by tumbling resin with buffer end-over-end, 30 min., 4° C. The resin was captured on a 0.2 μm membrane disposable filter unit (Millipore SCGP U02 RE) and the elute collected in the reservoir. The elute was concentrated using a 30 k MWCO centrifugal filter device (Sartorius Vivascience Vivacell 100, VC1022), to 20 ml. It was then dialyzed overnight at 4° C., two times against 2 L of 10% glycerol, 25 mM Tris-Cl, 300 mM NaCl, 0.2 mM EDTA, 0.2 mM DTT, pH 7.5 at 4° C. The protein was filtered using a 0.22 μm disposable filter unit (Millipore SCGP00525). The protein concentration was calculated from absorbance at 280 nm, using 280=0.67 cm-1 mg-1. Yield was 235 mg, total. The protein was stored at −80° C. Human Hormone-Sensitive Lipase (HSL) enzyme inhibition assay:
HSL enzyme activity was measured by a colorimetric assay using 2,3-dimercapto-1-propanol tributyrate (Aldrich, St. Louis, Mo.) as a substrate. Typically, 1.5 mM 2,3-dimercapto-1-propanol tributyrate (DMPT) in 100 mM MOPS, pH 7.2, 0.2 mg/ml fatty acid-free BSA was prepared by sonication at 4° C. to homogenous suspension. Test compounds (2 mM stock in DMSO) were diluted 3 fold in series in DMSO. Compound solutions were diluted 24 fold in 1.5 mM DMPT containing solution and 18 ul per well was added to 384-well microplates (Corning Costar). Twelve microliters per well of human HSL (15 ug/ml) was added and the reaction mixture was incubated at 37° C. for 20 minutes. Six microliters of 12 mM dithio-bis-(2-nitrobenzoic acid) (DTNB) in DMSO plus 1.2% SDS and 0.6% Triton X-100 were added and the mixture was incubated at room temperature for 15 minutes. Product production was monitored by reading absorbance at 405 nm on an Envision Reader (PerkinElmer Life and Analytical Sciences, Shelton, Conn.).

Structure (SMILES)	IC50
CC(C)CS(=O)(=O)N1CCC(N)(C(=O)Nc2ccc(C(C)C)cc2)CC1 [Example 120, 4-Amino-1-(2-methyl-propane-1-sulfonyl)-piperidine-4-carboxylic acid (4-isopropyl-phenyl)-amide; hydrochloride]	230 nM
CCc1ccc(NC(=O)C2(N)CCN(Cc3ccccc3C)CC2)cc1 [Example 152, 4-Amino-1-(2-methyl-benzyl)-piperidine-4-carboxylic acid (4-ethyl-phenyl)-amide]	120 nM
CCc1ccc(NC(=O)C2(N)CCN(S(=O)(=O)CC3CCCCC3)CC2)cc1 [Example 144, 4-Amino-1-cyclohexylmethanesulfonyl-piperidine-4-carboxylic acid (4-ethyl-phenyl)-amide]	140 nM
CC(C)c1ccc(NC(=O)C2(N)CCN(Cc3cccc(F)c3)CC2)cc1 [Example 111, 4-Amino-1-(3-fluoro-benzyl)-piperidine-4-carboxylic acid (4-isopropyl-phenyl)-amide; hydrochloride]	240 nM
O=C(Nc1ccc(OC(F)(F)F)cc1)C1(O)CCN(S(=O)(=O)CCC(F)(F)F)CC1 [Example 62, 4-Hydroxy-1-(3,3,3-trifluoro-propane-1-sulfonyl)-piperidine-4-carboxylic acid (4-trifluoromethoxy-phenyl)-amide]	870 nM
Cc1ccccc1S(=O)(=O)N1CCC(N)(C(=O)Nc2ccc(C(C)C)cc2)CC1 [Example 119, 4-Amino-1-(toluene-2-sulfonyl)-piperidine-4-carboxylic acid (4-isopropyl-phenyl)-amide]	60 nM
NC1(C(=O)Nc2ccc(OCC(F)(F)F)cc2)CCN(S(=O)(=O)c2ccccc2Cl)CC1 [Example 105, 4-Amino-1-(2-chloro-benzenesulfonyl)-piperidine-4-carboxylic acid [4-(2,2,2-trifluoro-ethoxy)-phenyl]-amide]	110 nM
Cc1ccc(NC(=O)C2(N)CCN(C(=O)Nc3ccc(OC(F)(F)F)cc3)CC2)cc1 [Example 84, 4-Amino-piperidine-1,4-dicarboxylic acid 4-p-tolylamide 1-[(4-trifluoromethoxy-phenyl)-amide]; hydrochloride]	360 nM
COc1ccc(S(=O)(=O)N2CCC(O)(C(=O)Nc3ccc(C(C)C)cc3)CC2)cc1 [Example 8, 4-Hydroxy-1-(4-methoxy-benzenesulfonyl)-piperidine-4-carboxylic acid (4-isopropyl-phenyl)-amide]	200 nM
Cc1ccc(S(=O)(=O)N2CCC(N)(C(=O)Nc3ccc(C(C)C)cc3)CC2)cc1 [Example 78, 4-Amino-1-(toluene-4-sulfonyl)-piperidine-4-carboxylic acid (4-isopropyl-phenyl)-amide; hydrochloride]	70 nM
CCc1ccc(NC(=O)C2(N)CCN(S(=O)(=O)c3ccc(OC)cc3)CC2)cc1 [Example 139, 4-Amino-1-(4-methoxy-benzenesulfonyl)-piperidine-4-carboxylic acid (4-ethyl-phenyl)-amide]	80 nM
CCc1ccc(NC(=O)C2(N)CCN(Cc3ccccc3OC(F)(F)F)CC2)cc1 [Example 156, 4-Amino-1-(2-trifluoromethoxy-benzyl)-piperidine-4-carboxylic acid (4-ethyl-phenyl)-amide]	80 nM
Cc1ccc(S(=O)(=O)N2CCC(N)(C(=O)Nc3ccc(OC(C)C)cc3)CC2)cc1 [Example 79, 4-Amino-1-(toluene-4-sulfonyl)-piperidine-4-carboxylic acid (4-isopropoxy-phenyl)-amide; hydrochloride]	130 nM
CCc1ccc(NC(=O)C2(N)CCN(S(=O)(=O)c3ccc(C(F)(F)F)cc3Cl)CC2)cc1 [Example 147, 4-Amino-1-(2-chloro-4-trifluoromethyl-benzenesulfonyl)-piperidine-4-carboxylic acid (4-ethyl-phenyl)-amide]	430 nM
CC(C)c1ccc(NC(=O)C2(N)CCN(S(=O)(=O)c3ccccc3Cl)CC2)cc1 [Example 116, 4-Amino-1-(2-chloro-benzenesulfonyl)-piperidine-4-carboxylic acid (4-isopropyl-phenyl)-amide; hydrochloride]	40 nM
CC(C)c1ccc(NC(=O)C2(N)CCN(S(=O)(=O)c3ccc(C(F)(F)F)cc3Cl)CC2)cc1 [Example 131, 4-Amino-1-(2-chloro-4-trifluoromethyl-benzenesulfonyl)-piperidine-4-carboxylic acid (4-isopropyl-phenyl)-amide]	500 nM
CC(C)c1ccc(NC(=O)C2(N)CCN(C(=O)Nc3ccc(F)cc3)CC2)cc1 [Example 106, 4-Amino-piperidine-1,4-dicarboxylic acid 1-[(4-fluoro-phenyl)-amide]-4-[(4-isopropyl-phenyl)-amide]; hydrochloride]	210 nM
CCc1ccc(NC(=O)C2(N)CCN(C(c3ccccc3)c3ccccc3)CC2)cc1 [Example 159, 4-Amino-1-benzhydryl-piperidine-4-carboxylic acid (4-ethyl-phenyl)-amide]	150 nM
CC(C)CC(=O)N1CCC(N)(C(=O)Nc2ccc(C(C)C)cc2)CC1 [Example 128, 4-Amino-1-(3-methyl-butyryl)-piperidine-4-carboxylic acid (4-isopropyl-phenyl)-amide]	660 nM
CC(C)(C)c1ccc(NC(=O)N2CCC(N)(C(=O)Nc3ccc(F)cc3)CC2)cc1 [Example 87, 4-Amino-piperidine-1,4-dicarboxylic acid 1-[(4-tert-butyl-phenyl)-amide]-4-[(4-fluoro-phenyl)-amide]; hydrochloride]	780 nM
